Where two headings read alike, the source gives them in different places.
Legend:
mTORC2 = target: T1, mTORC2 (Homo sapiens, UniProt P42345+P62942); test: Inhibition assay for mTORC2: phosphorylation of pAkt at Ser473, AlphaLISA SureFire in PC3 cells; assay type: cell-based; conditions: 24 hours treatment, analogs substituted at C40 and C16 (C16 diastereomer mixtures not isolated)
T1 construct: endogenous in cells; host or cells: PC3 cells (human prostate adenocarcinoma)
Summary of the method: (§1)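 Human prostate adenocarcinoma PC3 cells treated with compounds for 24 h. AlphaLISA SureFire read-out of pS6K Thr389 for mTORC1 and pAkt Ser473 for mTORC2, from which IC50s were derived.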

mTORC1 = target: T2, mTORC1 (Homo sapiens, UniProt P42345+P62942); test: Inhibition assay for mTORC1: phosphorylation of pS6K at Thr389, AlphaLISA SureFire in PC3 cells; assay type: cell-based
T2 construct: endogenous in cells; host or cells: PC3 cells (human prostate adenocarcinoma)
Summary of the method: as §1

[1] = PC3 cells, read-out: pIC50 mTORC2 (converted)
[2] = PC3 cells, 24 hours treatment, pS6K Thr389, analogs substituted at C40 and C16 (C16 diastereomer mixtures not isolated), read-out: pIC50 mTORC1 (converted)

| Compound | IC50 (mTORC2; [1]) [nM] | IC50 (mTORC1; [2]) [nM] | IC50 (mTORC2; pIC50 mTORC2, PC3 cells) [nM] | IC50 (mTORC1) [nM] |
| --- | --- | --- | --- | --- |
| CO[C@@H]1C[C@H](C[C@@H](C)[C@@H]2CC(=O)[C@H](C)/C=C(\C)[C@@H](O)[C@@H](OC)C(=O)[C@H](C)C[C@H](C)/C=C/C=C/C=C(\C)C(OCCc3ccccc3)C[C@@H]3CC[C@@H](C)[C@@](O)(O3)C(=O)C(=O)N3CCCCC3C(=O)O2)CC[C@H]1OCCCO (stereo partly drawn) [Compound 94, (1R,9S,12SR,15R,16E,18R,19R,21R,23S,24E,26E,28E,32S,35R)-1,18-dihydroxy-12-[(1R)-2-[(1S,3R,4R)-4-(3-hydroxypropoxy)-3-methoxy-cyclohexyl]-1-methyl-ethyl]-19-methoxy-15,17,21,23,29,35-hexamethyl-30-(2-phenylethoxy)-11,36-dioxa-4-azatricyclo[30.3.1.0^4,9]hexatriaconta-16,24,26,28-tetraene-2,3,10,14,20-pentone] | 1000 to 10000 | < 0.316 |  |  |
| CO[C@@H]1C[C@H](C[C@@H](C)[C@@H]2CC(=O)[C@H](C)/C=C(\C)[C@@H](O)[C@@H](OC)C(=O)[C@H](C)C[C@H](C)/C=C/C=C/C=C(\C)C(OCCO)C[C@@H]3CC[C@@H](C)[C@@](O)(O3)C(=O)C(=O)N3CCCCC3C(=O)O2)CC[C@H]1OCCCCN1CCOCC1 (stereo partly shown) [Compound 50] | 1000 to 10000 | < 0.316 |  |  |
| CO[C@@H]1C[C@H](C[C@@H](C)[C@@H]2CC(=O)[C@H](C)/C=C(\C)[C@@H](O)[C@@H](OC)C(=O)[C@H](C)C[C@H](C)/C=C/C=C/C=C(\C)C(OCCOCCO)C[C@@H]3CC[C@@H](C)[C@@](O)(O3)C(=O)C(=O)N3CCCCC3C(=O)O2)CC[C@H]1OCCO (stereo partly shown) [Compound 69] | > 10000 | 0.316 to 3.16 |  |  |
| COCCCO[C@@H]1CC[C@@H](C[C@@H](C)[C@@H]2CC(=O)[C@H](C)/C=C(\C)[C@@H](O)[C@@H](OC)C(=O)[C@H](C)C[C@H](C)/C=C/C=C/C=C(\C)C(OCCOC)C[C@@H]3CC[C@@H](C)[C@@](O)(O3)C(=O)C(=O)N3CCCCC3C(=O)O2)C[C@H]1OC (stereo partly shown) [Compound 14] | > 10000 | < 0.316 |  |  |
| COCCOC1C[C@@H]2CC[C@@H](C)[C@@](O)(O2)C(=O)C(=O)N2CCCCC2C(=O)O[C@H]([C@H](C)C[C@@H]2CC[C@@H](OC(=O)N(C)CCN3CCOCC3)[C@H](OC)C2)CC(=O)[C@H](C)/C=C(\C)[C@@H](O)[C@@H](OC)C(=O)[C@H](C)C[C@H](C)/C=C/C=C/C=C/1C (stereo partly shown) [Compound 25] | 1000 to 10000 | < 0.316 |  |  |
| CO[C@@H]1C[C@H](C[C@@H](C)[C@@H]2CC(=O)[C@H](C)/C=C(\C)[C@@H](O)[C@@H](OC)C(=O)[C@H](C)C[C@H](C)/C=C/C=C/C=C(\C)C(OCC3COC3)C[C@@H]3CC[C@@H](C)[C@@](O)(O3)C(=O)C(=O)N3CCCCC3C(=O)O2)CC[C@H]1OCCO (stereo partly shown) [Compound 75] | 1000 to 10000 | 0.316 to 3.16 |  |  |
| COCCOC1C[C@@H]2CC[C@@H](C)[C@@](O)(O2)C(=O)C(=O)N2CCCCC2C(=O)O[C@H]([C@H](C)C[C@@H]2CC[C@@H](OCCCCN3CCOCC3)[C@H](OC)C2)CC(=O)[C@H](C)/C=C(\C)[C@@H](O)[C@@H](OC)C(=O)[C@H](C)C[C@H](C)/C=C/C=C/C=C/1C (stereo partly shown) [Compound 56] | 1000 to 10000 | < 0.316 |  |  |
| CO[C@@H]1C[C@H](C[C@@H](C)[C@@H]2CC(=O)[C@H](C)/C=C(\C)[C@@H](O)[C@@H](OC)C(=O)[C@H](C)C[C@H](C)/C=C/C=C/C=C(\C)C(OCCc3ccccc3)C[C@@H]3CC[C@@H](C)[C@@](O)(O3)C(=O)C(=O)N3CCCCC3C(=O)O2)CC[C@H]1OC(=O)NCCn1cnnn1 (stereo partly shown) [Compound 114] | < 1000 | < 0.316 |  |  |
| COCCOCCOC1C[C@@H]2CC[C@@H](C)[C@@](O)(O2)C(=O)C(=O)N2CCCC[C@H]2C(=O)O[C@H]([C@H](C)C[C@@H]2CC[C@@H](OCCCO)[C@H](OC)C2)CC(=O)[C@H](C)/C=C(\C)[C@@H](O)[C@@H](OC)C(=O)[C@H](C)C[C@H](C)/C=C/C=C/C=C/1C (mixture of isomers) [Compound 17] |  |  | > 10000 | < 0.316 |
| COCCOC1C[C@@H]2CC[C@@H](C)[C@@](O)(O2)C(=O)C(=O)N2CCCCC2C(=O)O[C@H]([C@H](C)C[C@@H]2CC[C@@H](OCCOC)[C@H](OC)C2)CC(=O)[C@H](C)/C=C(\C)[C@@H](O)[C@@H](OC)C(=O)[C@H](C)C[C@H](C)/C=C/C=C/C=C/1C (stereo partly shown) [Compound 29] | > 10000 | < 0.316 |  |  |
| COCCOC1C[C@@H]2CC[C@@H](C)[C@@](O)(O2)C(=O)C(=O)N2CCCCC2C(=O)O[C@H]([C@H](C)C[C@@H]2CC[C@@H](OCCCN3CCC[C@H](O)C3)[C@H](OC)C2)CC(=O)[C@H](C)/C=C(\C)[C@@H](O)[C@@H](OC)C(=O)[C@H](C)C[C@H](C)/C=C/C=C/C=C/1C (stereo partly shown) [Compound 54] | 1000 to 10000 | < 0.316 |  |  |
| CO[C@@H]1C[C@H](C[C@@H](C)[C@@H]2CC(=O)[C@H](C)/C=C(\C)[C@@H](O)[C@@H](OC)C(=O)[C@H](C)C[C@H](C)/C=C/C=C/C=C(\C)C(OCCO)C[C@@H]3CC[C@@H](C)[C@@](O)(O3)C(=O)C(=O)N3CCCCC3C(=O)O2)CC[C@H]1OC(=O)NCCN1CCN(C)CC1 (stereo partly shown) [Compound 76] | > 10000 | 0.316 to 3.16 |  |  |
| CO[C@@H]1C[C@H](C[C@@H](C)[C@@H]2CC(=O)[C@H](C)/C=C(\C)[C@@H](O)[C@@H](OC)C(=O)[C@H](C)C[C@H](C)/C=C/C=C/C=C(\C)C(OC(C)C)C[C@@H]3CC[C@@H](C)[C@@](O)(O3)C(=O)C(=O)N3CCCCC3C(=O)O2)CC[C@H]1OC(=O)NCCc1ccccc1 (stereo partly shown) [Compound 80] | > 10000 | 0.316 to 3.16 |  |  |
| CO[C@@H]1C[C@H](C[C@@H](C)[C@@H]2CC(=O)[C@H](C)/C=C(\C)[C@@H](O)[C@@H](OC)C(=O)[C@H](C)C[C@H](C)/C=C/C=C/C=C(\C)C(OCCCO)C[C@@H]3CC[C@@H](C)[C@@](O)(O3)C(=O)C(=O)N3CCCCC3C(=O)O2)CC[C@H]1OCCO (stereo partly shown) [Compound 15] | > 10000 | < 0.316 |  |  |
| CO[C@@H]1C[C@H](C[C@@H](C)[C@@H]2CC(=O)[C@H](C)/C=C(\C)[C@@H](O)[C@@H](OC)C(=O)[C@H](C)C[C@H](C)/C=C/C=C/C=C(\C)C(OCC3COC3)C[C@@H]3CC[C@@H](C)[C@@](O)(O3)C(=O)C(=O)N3CCCCC3C(=O)O2)CC[C@H]1OCCCO (stereo partly shown) [Compound 84] | 1000 to 10000 | 0.316 to 3.16 |  |  |
| CO[C@@H]1C[C@H](C[C@@H](C)[C@@H]2CC(=O)[C@H](C)/C=C(\C)[C@@H](O)[C@@H](OC)C(=O)[C@H](C)C[C@H](C)/C=C/C=C/C=C(\C)C(OCCO)C[C@@H]3CC[C@@H](C)[C@@](O)(O3)C(=O)C(=O)N3CCCCC3C(=O)O2)CC[C@H]1OCCCc1ccccc1 (stereo partly shown) [Compound 38] | > 10000 | 0.316 to 3.16 |  |  |
| CO[C@@H]1C[C@H](C[C@@H](C)[C@@H]2CC(=O)[C@H](C)/C=C(\C)[C@@H](O)[C@@H](OC)C(=O)[C@H](C)C[C@H](C)/C=C/C=C/C=C(\C)C(OCCc3ccccc3)C[C@@H]3CC[C@@H](C)[C@@](O)(O3)C(=O)C(=O)N3CCCCC3C(=O)O2)CC[C@H]1OCCCN1CCOCC1 (stereo partly shown) [Compound 108] | < 1000 | < 0.316 |  |  |
| CO[C@@H]1C[C@H](C[C@@H](C)[C@@H]2CC(=O)[C@H](C)/C=C(\C)[C@@H](O)[C@@H](OC)C(=O)[C@H](C)C[C@H](C)/C=C/C=C/C=C(\C)C(OCCc3ccccc3)C[C@@H]3CC[C@@H](C)[C@@](O)(O3)C(=O)C(=O)N3CCCCC3C(=O)O2)CC[C@H]1OC(=O)N(C)CCCN(C)C (stereo partly shown) [Compound 95] | < 1000 | < 0.316 |  |  |
| CO[C@@H]1C[C@H](C[C@@H](C)[C@@H]2CC(=O)[C@H](C)/C=C(\C)[C@@H](O)[C@@H](OC)C(=O)[C@H](C)C[C@H](C)/C=C/C=C/C=C(\C)C(OCCO)C[C@@H]3CC[C@@H](C)[C@@](O)(O3)C(=O)C(=O)N3CCCCC3C(=O)O2)CC[C@H]1OCCCN1CCCCC1 (stereo partly drawn) [Compound 87, (1R,9S,12S,15R,16E,18R,19R,21R,23S,24E,26E,28E,32S,35R)-1,18-dihydroxy-30-(2-hydroxyethoxy)-19-methoxy-12-[(1R)-2-[(1S,3R,4R)-3-methoxy-4-[3-(1-piperidyl)propoxy]cyclohexyl]-1-methyl-ethyl]-15,17,21,23,29,35-hexamethyl-11,36-dioxa-4-azatricyclo[30.3.1.0^4,9]hexatriaconta-16,24,26,28-tetraene-2,3,10,14,20-pentone] | 1000 to 10000 | 0.316 to 3.16 |  |  |
| COCCOC1C[C@@H]2CC[C@@H](C)[C@@](O)(O2)C(=O)C(=O)N2CCCCC2C(=O)O[C@H]([C@H](C)C[C@@H]2CC[C@@H](OCCCN3CCCCC3)[C@H](OC)C2)CC(=O)[C@H](C)/C=C(\C)[C@@H](O)[C@@H](OC)C(=O)[C@H](C)C[C@H](C)/C=C/C=C/C=C/1C (stereo partly shown) [Compound 35] | 1000 to 10000 | < 0.316 |  |  |
| CO[C@@H]1C[C@H](C[C@@H](C)[C@@H]2CC(=O)[C@H](C)/C=C(\C)[C@@H](O)[C@@H](OC)C(=O)[C@H](C)C[C@H](C)/C=C/C=C/C=C(\C)C(OCc3ccccc3)C[C@@H]3CC[C@@H](C)[C@@](O)(O3)C(=O)C(=O)N3CCCCC3C(=O)O2)CC[C@H]1OCCCc1ccccc1 (stereo partly shown) [Compound 116] | < 1000 | 0.316 to 3.16 |  |  |
| CO[C@@H]1C[C@H](C[C@@H](C)[C@@H]2CC(=O)[C@H](C)/C=C(\C)[C@@H](O)[C@@H](OC)C(=O)[C@H](C)C[C@H](C)/C=C/C=C/C=C(\C)C(OC[C@@H](O)c3ccccc3)C[C@@H]3CC[C@@H](C)[C@@](O)(O3)C(=O)C(=O)N3CCCCC3C(=O)O2)CC[C@H]1OCCCO (stereo partly shown) [Compound 90] | 1000 to 10000 | < 0.316 |  |  |
| COCCOC1C[C@@H]2CC[C@@H](C)[C@@](O)(O2)C(=O)C(=O)N2CCCCC2C(=O)O[C@H]([C@H](C)C[C@@H]2CC[C@@H](OCCN3CCN(C)CC3)[C@H](OC)C2)CC(=O)[C@H](C)/C=C(\C)[C@@H](O)[C@@H](OC)C(=O)[C@H](C)C[C@H](C)/C=C/C=C/C=C/1C (stereo partly shown) [Compound 47] | 1000 to 10000 | < 0.316 |  |  |

Reference: patent US12565505B2, “mTORC modulators and uses thereof” (Aeovian Pharmaceuticals, Inc., priority 2019, dated 2026)
